Structures can show the parent of a compound that is named as a salt. Where two headings read alike, the source gives them in different places.

For one test, the system named is AR2 cells (HepG2-AR2). The test can be described thus: Alamar Blue (resazurin) post hoc cell viability / cytotoxicity assay in AR2 cells. The conditions noted are these: spid Viability, sheet antagonist_fits; for hill_tp (Hill model top): 0 where win_model is Constant.
The subject of a further test is AR. Set-up: method as in Kleinstreuer et al., 2017. The conditions noted are these: 2017, cited from earlier work; for Antagonist reference: AR antagonist reference class ref Kleinstreuer et al.; for Agonist reference: AR agonist reference class ref Kleinstreuer et al.
The target of test [1] is T1, human AR (Homo sapiens, UniProt P10275).
T1 sequence (P10275 1-920) 1: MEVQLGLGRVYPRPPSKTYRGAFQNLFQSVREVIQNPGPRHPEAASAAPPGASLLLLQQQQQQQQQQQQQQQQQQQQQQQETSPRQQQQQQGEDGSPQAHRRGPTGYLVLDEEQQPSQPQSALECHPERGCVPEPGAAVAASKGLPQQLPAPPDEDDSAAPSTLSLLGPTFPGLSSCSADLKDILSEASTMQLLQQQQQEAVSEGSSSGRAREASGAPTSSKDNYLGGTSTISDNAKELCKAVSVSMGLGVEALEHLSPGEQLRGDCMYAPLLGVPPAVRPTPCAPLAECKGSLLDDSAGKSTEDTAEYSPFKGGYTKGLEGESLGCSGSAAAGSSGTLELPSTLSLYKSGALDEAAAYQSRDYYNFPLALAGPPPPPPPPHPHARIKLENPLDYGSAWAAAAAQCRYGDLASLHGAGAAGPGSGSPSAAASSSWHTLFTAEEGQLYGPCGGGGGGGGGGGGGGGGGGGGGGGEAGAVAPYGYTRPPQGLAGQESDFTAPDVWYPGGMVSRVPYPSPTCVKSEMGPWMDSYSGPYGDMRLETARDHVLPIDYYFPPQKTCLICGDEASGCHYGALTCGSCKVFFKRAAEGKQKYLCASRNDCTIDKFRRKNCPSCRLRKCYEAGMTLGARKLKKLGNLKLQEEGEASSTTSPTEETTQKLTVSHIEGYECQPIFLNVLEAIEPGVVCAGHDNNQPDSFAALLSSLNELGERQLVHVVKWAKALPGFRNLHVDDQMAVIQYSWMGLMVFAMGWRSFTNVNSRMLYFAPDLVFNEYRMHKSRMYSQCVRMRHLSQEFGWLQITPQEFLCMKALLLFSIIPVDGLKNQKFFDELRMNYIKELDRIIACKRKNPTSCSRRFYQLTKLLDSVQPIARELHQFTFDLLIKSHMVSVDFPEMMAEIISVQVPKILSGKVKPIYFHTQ
T1 sequence (P10275 1-920) 2: T1 sequence (P10275 1-920) 1
The test can be described thus: AR2 assay, agonist mode: ligand-dependent AR homodimerization (NanoBiT luciferase complementation) in stable HepG2-AR2 cells.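 For hill tp: Log2 fold change of luminescence over DMSO vehicle wells.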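 For max med: Log2 fold change of luminescence over DMSO vehicle wells.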 Format: cell-based. The conditions noted are these: sheet agonist_fits; for hill_tp: Hill model top (efficacy), 0 given where win_model is Constant; for max_med: maximum median response; for win_model: winning concentration-response model (Constant, Hill, Gain-Loss).

The target of test [2] is T1, human AR. Nature of the test: AR2 assay, antagonist mode: disruption of R1881 (10 nM)-induced AR homodimerization in HepG2-AR2 cells. Format: cell-based. The following applies: spid AR_antagonist, sheet antagonist_fits; for hill_gw (Hill model slope) / hill_tp (Hill model top): 0 where win_model is Constant.
In test [3] the test system is full-length human AR and the receptor interacting domain (RID) of SRC1. Set-up: method as in U.S. EPA, 2002b. The conditions noted are these: activity call, single protocol detects agonists and antagonists, invitroDBv3.4 ref U.S. EPA, 2002b, cited from earlier work.

Protocol for AR2 cells (HepG2-AR2): For antagonist mode and cytotoxicity data, well-level normalized response (resp) was calculated as: resp=100 * RLU−bval/pval−bval where pval is the median RLU value of the MEC positive control wells (minimum four wells).

Consider `COc1ccc(C(c2ccc(OC)cc2)C(Cl)(Cl)Cl)cc1` [Methoxychlor], for which, in the test on AR2 cells (HepG2-AR2), the “max_med (maximum median response)” value is listed as 4.672. Besides, in the test on AR2 cells (HepG2-AR2), the “hill_tp (Hill model top)” value was 0. Moreover, the Antagonist reference entry in the test with AR and in the test with AR (Supplementary Table S1) was “Weak” each time.

As for `CC(C)C(=O)Nc1ccc([N+](=O)[O-])c(C(F)(F)F)c1` [Flutamide], in the test with AR2 cells (HepG2-AR2), the “max_med (maximum median response)” value is 35.756 and the “hill_tp (Hill model top)” value is reported as 43.7281. Also, in the test with AR, the Agonist reference result is given as “Inactive” and the Antagonist reference entry is reported as “Moderate”. Moreover, the Antagonist reference result in the test with AR (Supplementary Table S1) was “Moderate”.

In the case of `C#C[C@]1(O)CC[C@H]2[C@@H]3CCC4=CC(=O)CC[C@@H]4[C@H]3CC[C@@]21C` [Norethindrone], in the test on AR2 cells (HepG2-AR2), the “max_med (maximum median response)” value is 2.971 and the “hill_tp (Hill model top)” value worked out at 0. In the test with AR, the Agonist reference entry was “Strong”. For the same compound, the Agonist reference result with AR (Supplementary Table S1) is “Strong”.

With `CCN(CC)CCOc1ccc(/C(=C(/Cl)c2ccccc2)c2ccccc2)cc1` [Enclomiphene hydrochloride], in the test on AR2 cells (HepG2-AR2), the “max_med (maximum median response)” value is 99.6641 and the “hill_tp (Hill model top)” value is reported as 101.238. In addition, on human AR [1], the hill_tp is reported as 0, the max_med was 0.05981 and the win_model result is given as “Constant”. Also, on human AR [2], the “max_med (maximum median response)” value came out at 104.097, the “win_model (winning concentration-response model)” value is “Hill”, the “hill_gw (Hill model slope)” value is 2.002 and the “hill_tp (Hill model top)” value worked out at 106.442.

As to `CCCCOC(=O)c1ccccc1C(=O)OCc1ccccc1` [Butylbenzylphthalate], in the test on AR2 cells (HepG2-AR2), the “max_med (maximum median response)” value stood at 15.4413 and the “hill_tp (Hill model top)” value came to 12.3573. Also, in the test with AR (Supplementary Table S1), the Agonist reference entry is “Inactive”.

With `CCOC(=O)CC(SP(=S)(OC)OC)C(=O)OCC` (stereo not drawn) [Malathion], in the test with AR2 cells (HepG2-AR2), the “max_med (maximum median response)” value was found to be 9.605 and the “hill_tp (Hill model top)” value turned out to be 0. For the same compound, at human AR [1], the hill_tp is 0, the max_med was 0.05987 and the win_model entry is recorded as “Constant”. Also, on human AR [2], the “max_med (maximum median response)” value came out at 33.4262, the “win_model (winning concentration-response model)” value is “Hill”, the “hill_gw (Hill model slope)” value came to 0.997 and the “hill_tp (Hill model top)” value turned out to be 41.649.

Regarding `CNC(=O)ON=C(C)SC` [Methomyl], in the test with AR2 cells (HepG2-AR2), the “max_med (maximum median response)” value is 19.3855 and the “hill_tp (Hill model top)” value came to 17.5917. Also, in the test on AR, the Antagonist reference result is “Inactive”.

Take `COP(=S)(OC)Oc1ccc([N+](=O)[O-])c(C)c1` [Fenitrothion]: the “max_med (maximum median response)” value with AR2 cells (HepG2-AR2) was determined as 18.684. Also, in the test on AR2 cells (HepG2-AR2), the “hill_tp (Hill model top)” value is on record as 19.2014. For the same compound, the Antagonist reference entry with AR and in the test with AR (Supplementary Table S1) was “Strong” throughout.

For the compound `CNC(=O)O/N=C(\SC)C(=O)N(C)C` [Oxamyl], in the test with AR2 cells (HepG2-AR2), the “max_med (maximum median response)” value worked out at 14.6316 and the “hill_tp (Hill model top)” value came out at 13.892. Also, on human AR [1], the hill_tp was 0, the max_med was 0.09886 and the win_model entry was “Constant”. Moreover, at human AR [2], the “max_med (maximum median response)” value came out at 4.35, the “win_model (winning concentration-response model)” value is given as “Constant”, the “hill_gw (Hill model slope)” value was found to be 0 and the “hill_tp (Hill model top)” value amounted to 0.

For `CCN(CC)CCOc1ccc(C(=C(Cl)c2ccccc2)c2ccccc2)cc1` [Clomiphene citrate], in the test with AR2 cells (HepG2-AR2), the “max_med (maximum median response)” value was 99.676 and the “hill_tp (Hill model top)” value is recorded as 104.376. Besides, the max_med at human AR [1] is given as -0.008157. At human AR [2], the “max_med (maximum median response)” value was determined as 103.883, the “win_model (winning concentration-response model)” value is given as “Hill”, the “hill_gw (Hill model slope)” value was found to be 2.036 and the “hill_tp (Hill model top)” value was 106.625.

As to `CC/C(=C(\c1ccccc1)c1ccc(OCCN(C)C)cc1)c1ccccc1` [Tamoxifen], in the test on AR2 cells (HepG2-AR2), the “max_med (maximum median response)” value came out at 41.7162 and the “hill_tp (Hill model top)” value is on record as 97.2082. For the same compound, the Agonist reference entry in the test on AR was “Inactive”.

`CC(=O)S[C@@H]1CC2=CC(=O)CC[C@]2(C)[C@H]2CC[C@@]3(C)[C@@H](CC[C@@]34CCC(=O)O4)[C@H]12` [Spironolactone]: in the test on AR2 cells (HepG2-AR2), the “max_med (maximum median response)” value was found to be 26.4305. Also, the Antagonist reference entry in the test on AR and with AR (Supplementary Table S1) was “Strong” throughout.

As to `CCCCCCCCCc1ccc(O)cc1` [4-Nonylphenol], in the test with AR2 cells (HepG2-AR2), the “max_med (maximum median response)” value is 99.78 and the “hill_tp (Hill model top)” value was determined as 100.689.

As for `C[C@]12C[C@H](O)[C@H]3[C@@H](CCC4=CC(=O)CC[C@@]43C)[C@@H]1CC[C@@H]2C(=O)CO` [Corticosterone], the “max_med (maximum median response)” value with AR2 cells (HepG2-AR2) was -0.2958.

For `CC(C)(C)NC(=O)[C@H]1CC[C@H]2[C@@H]3CC[C@H]4NC(=O)C=C[C@]4(C)[C@H]3CC[C@]12C` [Finasteride], in the test on AR2 cells (HepG2-AR2), the “max_med (maximum median response)” value worked out at 14.3947 and the “hill_tp (Hill model top)” value stood at 0. Besides, the Agonist reference result in the test with AR is “Inactive”.

For the compound `CCCCC(CC)COC(=O)c1ccccc1C(=O)OCC(CC)CCCC` (stereo not drawn) [Bis(2-ethylhexyl)phthalate], in the test with AR2 cells (HepG2-AR2), the “max_med (maximum median response)” value came out at 27.6798 and the “hill_tp (Hill model top)” value is recorded as 16.491.

Turning to `CCc1cccc(C)c1N(C(=O)CCl)C(C)COC` (stereo not drawn) [Metolachlor], in the test on AR2 cells (HepG2-AR2), the “max_med (maximum median response)” value was 26.908 and the “hill_tp (Hill model top)” value is recorded as 20.923.

`Cc1c(COC(=O)[C@@H]2[C@H](/C=C(\Cl)C(F)(F)F)C2(C)C)cccc1-c1ccccc1` (racemic) [Bifenthrin]: in the test with AR2 cells (HepG2-AR2), the “max_med (maximum median response)” value is 19.5548 and the “hill_tp (Hill model top)” value stood at 23.386.

In the case of `CCCCCC(=O)O[C@]1(C(C)=O)CC[C@H]2[C@@H]3CCC4=CC(=O)CC[C@]4(C)[C@H]3CC[C@@]21C` [Hydroxyprogesterone caproate], in the test with AR2 cells (HepG2-AR2), the “max_med (maximum median response)” value was -5.885.

As for `CC1(C)NC(=O)N(c2ccc([N+](=O)[O-])c(C(F)(F)F)c2)C1=O` [Nilutamide], in the test with AR2 cells (HepG2-AR2), the “max_med (maximum median response)” value was 8.678 and the “hill_tp (Hill model top)” value was 5.9263. In the test with AR (Supplementary Table S1), the Agonist reference entry was “Inactive” and the Antagonist reference result is recorded as “Moderate”.

For `CON(C)C(=O)Nc1ccc(Cl)c(Cl)c1` [Linuron], in the test with AR2 cells (HepG2-AR2), the “max_med (maximum median response)” value was found to be 8.62 and the “hill_tp (Hill model top)” value was found to be 20.739. In the test on AR, the Antagonist reference entry was “Moderate”. The Antagonist reference result in the test with AR (Supplementary Table S1) was “Moderate”.

With `C[C@]12CCC(=O)C=C1CC[C@@H]1[C@@H]2CC[C@]2(C)C(=O)CC[C@@H]12` [4-Androstene-3,17-dione], in the test on AR2 cells (HepG2-AR2), the “max_med (maximum median response)” value is 19.1138 and the “hill_tp (Hill model top)” value stood at 19.333. Also, in test [3] (8 h), the “OT 8 hr” value is 1. For the same compound, the “OT 16 hr” value in test [3] (16 h) is recorded as 1. In the test on AR, the Agonist reference result was “Moderate” and the Antagonist reference result is on record as “Inactive”. Besides, the Agonist reference result with AR (Supplementary Table S1) was “Moderate”.

For the compound `CCCCN(CC)c1c([N+](=O)[O-])cc(C(F)(F)F)cc1[N+](=O)[O-]` [Benfluralin], in the test with AR2 cells (HepG2-AR2), the “max_med (maximum median response)” value came to 17.0663 and the “hill_tp (Hill model top)” value is 11.4566.

As to `CCCN(CCOc1c(Cl)cc(Cl)cc1Cl)C(=O)n1ccnc1` [Prochloraz], in the test on AR2 cells (HepG2-AR2), the “max_med (maximum median response)” value is listed as 76.2192 and the “hill_tp (Hill model top)” value is reported as 81.7308. In addition, in the test on AR, the Agonist reference result is on record as “Inactive” and the Antagonist reference entry is reported as “Moderate”. Also, the Antagonist reference entry in the test on AR (Supplementary Table S1) is on record as “Moderate”.

On to `C#C[C@]1(O)CC[C@H]2[C@@H]3CCC4=CC(=O)CC[C@@H]4[C@H]3CC[C@@]21CC` [Levonorgestrel], for which, in the test with AR2 cells (HepG2-AR2), the “max_med (maximum median response)” value is recorded as 19.7477 and the “hill_tp (Hill model top)” value was determined as 15.1748. Also, the Agonist reference entry with AR was “Strong”. Further, the Agonist reference entry in the test on AR (Supplementary Table S1) was “Strong”.
